How the values were obtained:
[1] = target: T1, Full-length human Chk1 protein (Homo sapiens, UniProt O14757); assay: Kinase HTRF biochemical assay (HTRF KinEASE), Chk1 enzyme activity; conditions: full-length human Chk1, ATP 1 mM, 60 minutes at room temperature
T1 construct: purchased Carna Biosciences, Inc. 02-117
T1 sequence (O14757 1-476): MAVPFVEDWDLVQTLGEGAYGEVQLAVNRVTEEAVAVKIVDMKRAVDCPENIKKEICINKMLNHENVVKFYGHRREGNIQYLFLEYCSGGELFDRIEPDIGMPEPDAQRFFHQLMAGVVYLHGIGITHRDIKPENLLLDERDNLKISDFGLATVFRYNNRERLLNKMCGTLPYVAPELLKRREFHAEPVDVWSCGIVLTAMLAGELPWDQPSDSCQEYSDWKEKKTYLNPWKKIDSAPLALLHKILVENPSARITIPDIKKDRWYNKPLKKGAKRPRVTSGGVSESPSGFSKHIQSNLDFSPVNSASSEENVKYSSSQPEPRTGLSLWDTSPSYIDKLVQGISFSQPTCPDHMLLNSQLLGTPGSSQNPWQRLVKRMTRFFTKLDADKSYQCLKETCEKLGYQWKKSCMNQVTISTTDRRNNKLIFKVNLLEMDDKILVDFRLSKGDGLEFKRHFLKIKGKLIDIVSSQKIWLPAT
Method in brief: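 Full-length human Chk1 (0.012 ng/μL) in buffer with 5 mM MgCl2 and 1 mM DTT, preincubated with compound 10 min at room temperature; reaction with 120 nM biotinylated STK substrate 1 and 1 mM ATP for 60 min at room temperature. HTRF detection via cryptate antibody/streptavidin-XL665; IC50 from 10-point duplicate curves.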

p-CHK1 (Ser345) = assay: AlphaLISA SureFire Ultra p-CHK1 (Ser345) cellular assay in HT29 cells; format: cell-based
Method in brief: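 HT29 cells treated with compounds over a 10-point, 3-fold dilution series for 16 h at 37° C., then lysed; p-CHK1 (Ser345) in lysates measured by AlphaLISA SureFire Ultra (acceptor and donor steps 1 h each at room temperature). IC50 from dose-response curve fits.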

[2] = Homo sapiens, HT-29, 16 h at 37° C.

Compound | IC50 [1] | IC50 (p-CHK1 (Ser345); [2]) | IC50 (p-CHK1 (Ser345); 16 h at 37° C.)
COc1c(F)ccc(O[C@H]2C[C@H](N)C2)c1-c1cc(Nc2cnc(C#N)cn2)n[nH]1 [Example 2-3, 5-((5-(6-((1r,3r)-3-aminocyclobutoxy)-3-fluoro-2-methoxyphenyl)-1H-pyrazol-3-yl)amino)pyrazine-2-carbonitrile] | 10 to 100 nM | 100 to 500 nM | –
COc1cc(F)cc(O[C@H]2CC[C@H](N)CC2)c1-c1cc(Nc2cnc(C#N)cn2)n[nH]1 [Example 2-4, 5-((5-(2-(((lr,4r)-4-aminocyclohexyl)oxy)-4-fluoro-6-methoxyphenyl)-1 H-pyrazol-3-yl)amino)pyrazine-2-carbonitrile] | ≤ 10 nM | ≤ 50 nM | –
CN[C@H]1C[C@H](Oc2cccc(F)c2-c2cc(Nc3cnc(C#N)cn3)n[nH]2)C1 [Example 2-5, 5-((5-(2-fluoro-6-((1r,3r)-3-(methylamino)cyclobutoxy)phenyl)-1H-pyrazol-3-yl)amino)pyrazine-2-carbonitrile] | 10 to 100 nM | 100 to 500 nM | –
CN[C@@H]1CC[C@@H](Oc2ccc(F)c(F)c2-c2cc(Nc3cnc(C#N)cn3)n[nH]2)C1 [Example 3-1, 5-((5-(2,3-difluoro-6-(((1R,3R)-3-(methylamino)cyclopentyl)oxy)phenyl)-1H-pyrazol-3-yl)amino)pyrazine-2-carbonitrile] | 10 to 100 nM | 100 to 500 nM | –
COc1cccc(O[C@@H]2CC[C@H]2N)c1-c1cc(Nc2cnc(C#N)cn2)n[nH]1 [Example 3-2, 5-((5-(2-((1R,2R)-2-aminocyclobutoxy)-6-methoxyphenyl)-1H-pyrazol-3-yl)amino)pyrazine-2-carbonitrile] | ≤ 10 nM | ≤ 50 nM | –
COc1cccc(O[C@H]2CC[C@@H]2N)c1-c1cc(Nc2cnc(C#N)cn2)n[nH]1 [Example 3-5, 5-((5-(2-((1S,2S)-2-aminocyclobutoxy)-6-methoxyphenyl)-1H-pyrazol-3-yl)amino)pyrazine-2-carbonitrile] | ≤ 10 nM | ≤ 50 nM | –
COc1cccc(O[C@H]2CCCC[C@H](N)C2)c1-c1cc(Nc2cnc(C#N)cn2)n[nH]1 [Example 3-7, 5-((5-(2-(((1S,3S)-3-aminocycloheptyl)oxy)-6-methoxyphenyl)-1H-pyrazol-3-yl)amino)pyrazine-2-carbonitrile] | ≤ 10 nM | ≤ 50 nM | –
COc1cccc(O[C@H]2CC3(C[C@@H](N)C3)C2)c1-c1cc(Nc2cnc(C#N)cn2)n[nH]1 (some centres unmarked) [Example 3-11, 5-((5-(2-((6-aminospiro[3.3]heptan-2-yl)oxy)-6-methoxyphenyl)-1H-pyrazol-3-yl)amino)pyrazine-2-carbonitrile] | ≤ 10 nM | – | ≤ 50 nM
N#Cc1cnc(Nc2cc(-c3cccc(F)c3O[C@@H]3CC[C@H](N)C3)[nH]n2)cn1 [Example 3-13, 5-((5-(2-(((1R,3S)-3-aminocyclopentyl)oxy)-3-fluorophenyl)-1H-pyrazol-3-yl)amino)pyrazine-2-carbonitrile] | 100 to 500 nM | > 1000 nM | –
N#Cc1cnc(Nc2cc(-c3c(O[C@@H]4CC[C@H](N)C4)ccc(Cl)c3F)[nH]n2)cn1 [Example 3-19, 5-((5-(6-(((1R,3S)-3-aminocyclopentyl)oxy)-3-chloro-2-fluorophenyl)-1H-pyrazol-3-yl)amino)pyrazine-2-carbonitrile] | 10 to 100 nM | > 1000 nM | –
CN[C@@H]1CC[C@@H](Oc2cc(F)c(C)cc2-c2cc(Nc3cnc(C#N)cn3)n[nH]2)C1 [Example 3-21, 5-((5-(4-fluoro-5-methyl-2-(((1R,3R)-3-(methylamino)cyclopentyl)oxy)phenyl)-1H-pyrazol-3-yl)amino)pyrazine-2-carbonitrile] | ≤ 10 nM | 50 to 100 nM | –

Next, values leading:

IC50 [1] | IC50 (p-CHK1 (Ser345); [2]) | IC50 (p-CHK1 (Ser345); 16 h at 37° C.) | Compound
10 to 100 nM | 100 to 500 nM | – | N#Cc1cnc(Nc2cc(-c3ncccc3O[C@@H]3CC[C@H](N)C3)[nH]n2)cn1 [Example 1-63, 5-((5-(3-(((1R,3S)-3-aminocyclopentyl)oxy)pyridin-2-yl)-1H-pyrazol-3-yl)amino)pyrazine-2-carbonitrile]
500 to 1000 nM | > 1000 nM | – | N#Cc1cnc(Nc2cc(-c3ccccc3O[C@H]3CC[C@@H](N)C3)[nH]n2)cn1 [Example 2-1, 5-((5-(2-(((1S,3R)-3-aminocyclopentyl)oxy)phenyl)-1H-pyrazol-3-yl)amino)pyrazine-2-carbonitrile]
10 to 100 nM | 500 to 1000 nM | – | COc1cccc(O[C@H]2CC[C@@H](N)C2)c1-c1cc(Nc2cnc(C#N)cn2)n[nH]1 [Example 2-2, 5-((5-(2-(((1S,3R)-3-aminocyclopentyl)oxy)-6-methoxyphenyl)-1H-pyrazol-3-yl)amino)pyrazine-2-carbonitrile]
≤ 10 nM | ≤ 50 nM | – | COc1cccc(O[C@@H]2CCCC[C@H](N)C2)c1-c1cc(Nc2cnc(C#N)cn2)n[nH]1 [Example 3-8, 5-((5-(2-(((1R,3S)-3-aminocycloheptyl)oxy)-6-methoxyphenyl)-1H-pyrazol-3-yl)amino)pyrazine-2-carbonitrile]
≤ 10 nM | ≤ 50 nM | – | COc1cccc(O[C@H]2CC3(C[C@@H](N)C3)C2)c1-c1cc(Nc2cnc(C#N)cn2)n[nH]1 (some centres unmarked) [Example 3-10, 5-((5-(2-((6-aminospiro[3.3]heptan-2-yl)oxy)-6-methoxyphenyl)-1H-pyrazol-3-yl)amino)pyrazine-2-carbonitrile]
> 1000 nM | > 1000 nM | – | Cc1cccc(-c2cc(Nc3cnc(C#N)cn3)n[nH]2)c1O[C@@H]1CC[C@H](N)C1 [Example 3-12, 5-((5-(2-(((1R,3S)-3-aminocyclopentyl)oxy)-3-methylphenyl)-1H-pyrazol-3-yl)amino)pyrazine-2-carbonitrile]
500 to 1000 nM | > 1000 nM | – | N#Cc1cnc(Nc2cc(-c3cccc(Cl)c3O[C@@H]3CC[C@H](N)C3)[nH]n2)cn1 [Example 3-14, 5-((5-(2-(((1R,3S)-3-aminocyclopentyl)oxy)-3-chlorophenyl)-1H-pyrazol-3-yl)amino)pyrazine-2-carbonitrile]
≤ 10 nM | ≤ 50 nM | – | [2H]C([2H])([2H])Oc1cccc(O[C@@H]2CC[C@H](N)C2)c1-c1cc(Nc2cnc(C#N)cn2)n[nH]1 [Example 3-15, 5-((5-(2-(((1R,3S)-3-aminocyclopentyl)oxy)-6-(methoxy-d3)phenyl)-1H-pyrazol-3-yl)amino)pyrazine-2-carbonitrile]
10 to 100 nM | 100 to 500 nM | – | Cc1ccc(O[C@@H]2CC[C@H](N)C2)c(-c2cc(Nc3cnc(C#N)cn3)n[nH]2)c1F [Example 3-16, 5-((5-(6-(((1R,3S)-3-aminocyclopentyl)oxy)-2-fluoro-3-methylphenyl)-1H-pyrazol-3-yl)amino)pyrazine-2-carbonitrile]
10 to 100 nM | 100 to 500 nM | – | N#Cc1cnc(Nc2cc(-c3c(O[C@@H]4CC[C@H](N)C4)ccc(F)c3F)[nH]n2)cn1 [Example 3-18, 5-((5-(6-(((1R,3S)-3-aminocyclopentyl)oxy)-2,3-difluorophenyl)-1H-pyrazol-3-yl)amino)pyrazine-2-carbonitrile]
≤ 10 nM | ≤ 50 nM | – | CN[C@@H]1CC[C@@H](Oc2ccc(C)c(F)c2-c2cc(Nc3cnc(C#N)cn3)n[nH]2)C1 [Example 3-20, 5-((5-(2-fluoro-3-methyl-6-(((1R,3R)-3-(methylamino)cyclopentyl)oxy)phenyl)-1H-pyrazol-3-yl)amino)pyrazine-2-carbonitrile]

Source: patent US11707462B2, “Checkpoint kinase 1 (CHK1) inhibitors and uses thereof” (Boundless Bio, Inc., priority 2021, dated 2023)
